Experimental data taken from EP3505218B1, “A GENTLE DETERGENT COMPOSITION FOR GREASY AND ACNEIC SKINS” (Unifarco S.p.A., priority 2017, dated 2019).

How the values were obtained:
Propionibacterium acnes = conditions: cited from earlier work; for antibacterial / antimicrobial activity against Propionibacterium Acnes: raw material description, PCA ethyl cocoyl arginate at a pH lower than 7
[1] = Solubility of the raw material; type: physicochemical; conditions: needs to be pre-dissolved at 80°C in propylene glycol

Row | Molecule | antibacterial / antimicrobial activity against Propionibacterium Acnes (Propionibacterium acnes) | effectiveness as antibacterial against Propionibacterium acnes (Propionibacterium acnes; compared with other surfactants, US2008/0070986) | solubility [1]
1 | PCA ethyl cocoyl arginate | antimicrobial activity |  | 
2 | Laureth-7 citrate | known antibacterial properties | 2 magnitude orders less effective | 
3 | CCCCCCCCCCCC(=O)N[C@@H](CCCNC(=N)N)C(=O)O [Lauroyl arginine] |  |  | poorly soluble
